# Patent publication US20100047231A1, “Immuno-Stimulant Combination for Prophylaxis and Treatment of Hepatitis C” (priority 2005, published 2010)
# Assays:
# Type in all cases: in vivo
# [1] = system: HHD mice; assay: Lythic activity of CTL (chromium release) of splenocytes from immunised HHD mice against peptide-loaded T2 target cells; conditions: 100 μg NS3 + poly(I:C) + anti-CD40, two immunisations, sixty days after the second (FIG. 5B)
# Protocol: (§1) Groups of two mice were immunised via the i.p. route with 50 μg of anti-CD40. Four hours later, they were injected with 50 μg of poly(I:C) (i.v.) and different amounts of the antigens: NS3 protein or mixtures of NS3 with peptides (i.p.).
# (§2) In order to measure the CTL responses, the splenocytes coming from the immunised animals were incubated with peptides (10 μM) for 2 h at 37° C., washed twice and cultured on 24-well plates with a confluence of 7.5×10^6 cells/well. In experiments conducted for measuring the recognition of T1/HCVcon cells, 7.5×10^6 splenocytes of HHD mice were cultured with 7.5×10^5 T1/HCVcon cells previously treated with Mitomycin C (Sigma). In all cases, two days later, 2.5 U/ml of IL-2 (Boehringer-Mannheim GmbH, Germany) was added to the wells and 5 days later the cells were recovered in order to carry out chromium release assays.
# (§3) The lythic activity was measured by incubating different quantities of effector cells for 4 h with 3000 T2 target cells previously loaded with 51Cr, with and without peptide (target). […]
# (§4) The specific lysis percentage was calculated according to the formula: […]
# (§5) where the spontaneous lysis (measured as cpmspontaneous) corresponds to target cells incubated in the absence of effector cells, and the maximum lysis (cpmmaximum) is obtained by incubating target cells with 5% Tritonx100.
# [2] = system: HHD mice; assay: IFN-γ production (ELISA) by splenocytes from immunised HHD mice stimulated with peptides or NS3; conditions: 100 μg NS3 + poly(I:C) + anti-CD40, two immunisations, sixty days after the second
# Protocol: as §1
# Splenic cells were resuspended in complete medium and plated at 8×10^5 cells/well in 0.2 ml on 96-well plates with U-shaped bottom, in the absence or presence of peptides or of the recombinant NS3 protein of the HCV.
# Two days afterwards, the supernatants were collected for measuring the presence of IFN-γ by means of ELISA (BD-Pharmingen), following the manufacturer's instructions.
# [3] = system: T1/HCVcon cells; assay: Lythic activity of splenocytes from immunised HHD mice against T1/HCVcon cells (chromium release); conditions: 100 μg NS3 + poly(I:C) + anti-CD40, six days after immunisation, splenocytes stimulated five days with T1/HCVcon cells and IL-2 (FIG. 4)
# Protocol: as §1, §2, §3, §4, §5
substance,measurement,setting,value
"NS3 protein (SEQ. ID. NO: 2): Recombinant polypeptide with 635-amino-acid complete HCV NS3 sequence and His tail, expressed in E. coli; given with poly(I:C) and anti-CD40","Lasting CD8+ response, lythic activity against target cells loaded with peptide 1073",[1],capable of lysing target cells pulsed with the peptide 1073
same,"Lasting CD4+ response, IFN-γ production on stimulation with NS3 protein","[2]; NS3 1 μg/ml, 48 h (FIG. 5C)",potent and lasting CD4+ responses
same,"Lasting CD8+ response, production of IFN-γ on stimulation with peptide 1073","[2]; peptide 1073 10 μM, 48 h (FIG. 5A)",capable of producing large amounts of IFN-γ
same,Lysis of T1/HCVcon cells versus T1 control cells,[3],"greater capacity to lyse T1 cells, which expressed proteins of the HCV"
